Source: patent publication US20210087206A1, “MACROCYCLIC KINASE INHIBITORS AND THEIR USE” (TURNING POINT THERAPEUTICS, INC., priority 2017, published 2021)
pIC50: −log10 of the molar value.

Tests used:
Assay in all cases: Cell proliferation assay (CellTiter-Glo)
Assay type in all cases: cell-based
BaF3 EML4-ALK = biological target: T1, BaF3 EML4-ALK (Homo sapiens, UniProt Q9UM73); details: anti-cell proliferation, 72 hours
T1 construct: The EML4-ALK gene (variant 1) was synthesized at GenScript and cloned into pCDH-CMV-MCS-EF1-Puro plasmid (System Biosciences, Inc); fused on or other part: EML4 N-terminal part (variant 1: exons 1-13, with the coiled-coil that oligomerises the fusion) fused to the intracellular part of ALK, which contains the kinase domain; Q9HC35 (Echinoderm microtubule-associated protein-like 4)
Method in brief: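 Ba/F3 cells were lentivirally transduced with EML4-ALK variant 1 and selected for puromycin resistance and IL-3-independent growth. Proliferation was measured by CellTiter-Glo ATP luminescence to give IC50.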

KG-1 cell (OP2-FGFR1) = details: Homo sapiens, anti-cell proliferation, 72 hours
Method in brief: (§1)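 Cells seeded 24 h, then exposed to compounds for 72 h at 37° C., 5% CO2. Proliferation read by CellTiter-Glo luminescent ATP detection; IC50 from dose-response fits.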

KM12 (TPM3-TRKA) = details: Homo sapiens, anti-cell proliferation, 72 hours
Method in brief: as §1

T1 sequence (Q9UM73 whole entry, stated change not applied, the tested form may be a part): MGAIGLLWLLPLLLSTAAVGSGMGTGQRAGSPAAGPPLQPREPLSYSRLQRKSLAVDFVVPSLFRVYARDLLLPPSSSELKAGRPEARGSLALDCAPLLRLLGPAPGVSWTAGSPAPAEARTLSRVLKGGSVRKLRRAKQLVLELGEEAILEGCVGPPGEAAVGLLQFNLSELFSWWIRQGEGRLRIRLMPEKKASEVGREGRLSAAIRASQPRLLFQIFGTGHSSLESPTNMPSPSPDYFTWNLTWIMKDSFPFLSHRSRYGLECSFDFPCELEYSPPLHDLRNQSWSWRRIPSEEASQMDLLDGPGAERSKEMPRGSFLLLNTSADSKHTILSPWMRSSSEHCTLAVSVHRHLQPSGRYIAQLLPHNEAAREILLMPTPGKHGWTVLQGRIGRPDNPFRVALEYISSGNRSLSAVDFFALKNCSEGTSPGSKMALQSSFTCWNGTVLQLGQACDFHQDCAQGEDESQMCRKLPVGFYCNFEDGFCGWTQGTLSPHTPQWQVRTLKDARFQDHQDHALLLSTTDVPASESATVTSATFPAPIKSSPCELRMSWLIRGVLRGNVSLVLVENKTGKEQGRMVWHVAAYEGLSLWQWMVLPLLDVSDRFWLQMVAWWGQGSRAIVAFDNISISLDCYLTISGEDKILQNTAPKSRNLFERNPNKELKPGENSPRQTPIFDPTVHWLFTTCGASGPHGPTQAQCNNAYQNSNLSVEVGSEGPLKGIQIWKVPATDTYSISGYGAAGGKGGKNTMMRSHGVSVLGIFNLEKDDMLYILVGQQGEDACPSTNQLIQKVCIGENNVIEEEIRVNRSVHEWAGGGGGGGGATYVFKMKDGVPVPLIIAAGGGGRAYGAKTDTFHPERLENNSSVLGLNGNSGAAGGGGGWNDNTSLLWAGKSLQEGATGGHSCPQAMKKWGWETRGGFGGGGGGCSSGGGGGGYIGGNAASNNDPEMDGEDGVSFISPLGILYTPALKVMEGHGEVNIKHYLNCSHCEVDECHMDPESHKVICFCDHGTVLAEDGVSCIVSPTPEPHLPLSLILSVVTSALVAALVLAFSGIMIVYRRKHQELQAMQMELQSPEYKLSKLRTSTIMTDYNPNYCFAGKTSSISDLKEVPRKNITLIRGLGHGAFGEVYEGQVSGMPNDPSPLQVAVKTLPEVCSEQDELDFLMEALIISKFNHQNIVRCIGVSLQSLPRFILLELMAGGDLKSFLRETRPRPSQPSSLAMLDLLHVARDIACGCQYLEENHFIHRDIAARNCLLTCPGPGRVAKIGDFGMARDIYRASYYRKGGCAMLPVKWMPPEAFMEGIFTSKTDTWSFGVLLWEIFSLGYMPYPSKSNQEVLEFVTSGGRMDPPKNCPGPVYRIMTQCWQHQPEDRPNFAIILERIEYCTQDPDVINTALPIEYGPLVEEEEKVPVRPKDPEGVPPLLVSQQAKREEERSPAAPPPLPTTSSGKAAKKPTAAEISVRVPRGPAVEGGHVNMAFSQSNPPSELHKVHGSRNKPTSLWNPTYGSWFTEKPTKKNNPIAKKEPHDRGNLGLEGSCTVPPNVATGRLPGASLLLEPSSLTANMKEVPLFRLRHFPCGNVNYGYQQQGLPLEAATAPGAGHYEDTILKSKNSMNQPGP

| pIC50 (BaF3 EML4-ALK) | Compound | pIC50 (KG-1 cell (OP2-FGFR1)) | pIC50 (KM12 (TPM3-TRKA)) |
| --- | --- | --- | --- |
| 5.66 | C[C@H]1CNC(=O)c2cnn3cc4c(nc23)N(Cc2cc(F)cnc2O1)C1(CCCC1)CO4 [Compound 57, (12′S)-8′-fluoro-12′-methyl-3′H,6′H,12′H,13′H,14′H,15′H-spiro[cyclopentane-1,4′-[2,11]-dioxa[5,10,14,17,18,19]hexaaza-[18,1](metheno)[1,4]oxazino[3,4-i]pyrazolo[4,3-f]pyrido[3,2-l] [1,4,8,10]oxatriazacyclotridecin]-15′-one] | 5.40 | > 9.70 |
| 6.69 | C[C@@H]1COc2ncc(F)cc2CN2c3nc4c(cnn4cc3OCC23CCC3)C(=O)N1 [Compound 58, (13′R)-8′-fluoro-13′-methyl-3′H,6′H,12′H,13′H,14′H,15′H-spiro[cyclobutane-1,4′-[2,11]-dioxa[5,10,14,17,18,19]hexaaza-[18,1](metheno)[1,4]oxazino-[3,4-i]pyrazolo[4,3-f]pyrido-[3,2-l][1,4,8,10]oxatriazacyclo-tridecin]-15′-one] | 5.79 | > 9.70 |
| 5.99 | C[C@@H]1COc2ncc(F)cc2CN2c3nc4c(cnn4cc3OCC23CCCC3)C(=O)N1 [Compound 59, (13′R)-8′-fluoro-13′-methyl-3′H,6′H,12′H,13′H,14′H,15′H-spiro[cyclopentane-1,4′-[2,11]-dioxa[5,10,14,17,18,19]hexaaza-[18,1](metheno)[1,4]oxazino-[3,4-i]pyrazolo[4,3-f]pyrido-[3,2-l][1,4,8,10]oxatriazacyclo-tridecin]-15′-one] | 5.70 | > 9.70 |
| < 5.00 | C[C@@H]1COc2ncc(F)cc2CN2c3nc4c(cnn4cc3OC[C@H]2C(N)=O)C(=O)N1 [Compound 60, (4S,13R)-8-fluoro-13-methyl-15-oxo-3,4,12,13,14,15-hexahydro-6H-18,1-(metheno)[1,4]oxazino[3,4-i]pyrazolo[4,3-f]pyrido[3,2-l][1,4,8,10]oxatriazacyclotridecine-4-carboxamide] | < 5.00 | 7.29 |
| 5.40 | C[C@@H]1COc2ncc(F)cc2CN2C[C@H](O)COc3cn4ncc(c4nc32)C(=O)N1 [Compound 61, (4S,14R)-9-fluoro-4-hydroxy-14-methyl-4,5,14,15-tetrahydro-3H,7H-19,1-(methano)[1,4]-oxazepino[3,4-i]pyrazolo[4,3-f]-pyrido[3,2-l][1,4,8,10]oxatriaza-cyclotridecin-16(13H)-one] | 6.32 | 6.32 |
| 6.24 | C[C@@H]1COc2ncc(F)cc2CN2c3nc4c(cnn4cc3OCC23CC(F)(F)C3)C(=O)N1 [Compound 63, (13′R)-3,3,8′-trifluoro-13′-methyl-3′H,6′H,12′H,13′H,14′H,15′H-spiro[cyclobutane-1,4′-[2,11]-dioxa[5,10,14,17,18,19]hexaaza-[18,1](metheno)[1,4]oxazino[3,4-i]pyrazolo[4,3-f]pyrido[3,2-l] [1,4,8,10]oxatriazacyclotridecin]-15′-one] | 5.00 | > 9.70 |
| 5.91 | C[C@H]1CNC(=O)c2cnn3cc4c(nc23)N(Cc2cc(F)cnc2O1)C1(CO4)CC(F)(F)C1 [Compound 64, (12′S)-3,3,8′-trifluoro-12′-methyl-3′H,6′H,12′H,13′H,14′H,15′H-spiro[cyclobutane-1,4′-[2,11]-dioxa[5,10,14,17,18,19]hexaaza-[18,1](metheno)[1,4]oxazino[3,4-i]pyrazolo[4,3-f]pyrido[3,2-l] [1,4,8,10]oxatriazacyclotridecin]-15′-one] | 5.00 | > 9.70 |
| 6.79 | CC[C@@H]1COc2cn3ncc4c3nc2N1Cc1cc(F)cnc1OCC(C)(C)NC4=O [Compound 65, (4R)-4-ethyl-8-fluoro-13,13-dimethyl-3,4,13,14-tetrahydro-6H-18,1-(metheno)[1,4]oxazino[3,4-i]pyrazolo[4,3-f]pyrido[3,2-l][1,4,8,10]oxatriazacyclotridecin-15(12H)-one] | 7.38 | > 9.70 |
| 7.49 | C[C@@H]1COc2cn3ncc4c3nc2N1Cc1cc(F)cnc1OCC1(CC1)CNC4=O [Compound 67, (16′R)-12′-fluoro-16′-methyl-4′H,5′H,6′H,8′H,14′H,16′H,17′H-spiro[cyclopropane-1,7′-[9,18]-dioxa[1,2,5,10,15,20]hexaaza-[1,19](metheno)[1,4]oxazino[4,3-e]pyrazolo[3,4-h]pyrido[2,3-b] [1,5,7,11]oxatriazacyclotetradecin]-4′-one] | 8.06 | > 9.70 |
| 6.47 | C[C@@H]1COc2ncc(F)cc2CN2c3nc4c(cnn4cc3OCC2(C)C)C(=O)N1 [Compound 68, (13R)-8-fluoro-4,4,13-trimethyl-3,4,13,14-tetrahydro-6H-18,1-(metheno)[1,4]oxazino[3,4-i]-pyrazolo[4,3-f]pyrido[3,2-l] [1,4,8,10]oxatriazacyclotridecin-15(12H)-one] | 5.24 | > 9.70 |
| 7.06 | CC1CCNC(=O)c2cnn3cc4c(nc23)N(Cc2cc(F)cnc2O1)[C@H](C)CO4 (stereo partly drawn) [Compound 69, (16R)-12-fluoro-8,16-dimethyl-5,6,7,8,16,17-hexahydro-4H,14H-1,19-(metheno)[1,4]oxazino[4,3-e]pyrazolo[3,4-h]pyrido[2,3-b] [1,5,7,11]oxatriazacyclotetradecin-4-one] | 7.63 | > 9.70 |
| 7.45 | C[C@@H]1COc2cn3ncc4c3nc2N1Cc1cc(F)cnc1OCCC(C)(C)NC4=O [Compound 70, (16R)-12-fluoro-6,6,16-trimethyl-5,6,7,8,16,17-hexahydro-4H,14H-1,19-(metheno)[1,4]oxazino[4,3-e]pyrazolo[3,4-h]pyrido[2,3-b] [1,5,7,11]oxatriazacyclotetradecin-4-one] | 7.29 | > 9.70 |
| 7.70 | CC1CNC(=O)c2cnn3cc4c(nc23)N(Cc2cc(F)cnc2OC1)[C@H](C)CO4 (stereo partly drawn) [Compound 71, (16R)-12-fluoro-7,16-dimethyl-5,6,7,8,16,17-hexahydro-4H,14H-1,19-(metheno)[1,4]oxazino[4,3-e]pyrazolo[3,4-h]pyrido[2,3-b] [1,5,7,11]oxatriazacyclotetradecin-4-one] | 7.92 | > 9.70 |
| 7.73 | CC[C@@H]1COc2cn3ncc4c3nc2N1Cc1cc(F)cnc1OCC1(CC1)NC4=O [Compound 72, (4′R)-4′-ethyl-8′-fluoro-3′H,4′H,6′H,12′H,14′H,15′H-spiro[cyclopropane-1,13′-[2,11]dioxa[5,10,14,17,18,19]hexaaza-[18,1](metheno)[1,4]oxazino-[3,4-i]pyrazolo[4,3-f]pyrido[3,2-l][1,4,8,10]oxatriazacyclotridecin]-15′-one] | 8.41 | > 9.70 |
| 7.03 | CC[C@@H]1COc2cn3ncc4c3nc2N1Cc1cc(F)cnc1OCC1(CCC1)NC4=O [Compound 73, (4′R)-4′-ethyl-8′-fluoro-3′H,4′H,6′H,12′H,14′H,15′H-spiro[cyclobutane-1,13’-[2,11]-dioxa[5,10,14,17,18,19]hexaaza-[18,1](metheno)[1,4]oxazino[3,4-i]pyrazolo[4,3-f]pyrido[3,2-l] [1,4,8,10]oxatriazacyclotridecin]-15′-one] | 8.30 | > 9.70 |
| < 5.00 | C[C@@H]1COc2ncc(F)cc2CN2CC(F)(F)COc3cn4ncc(c4nc32)C(=O)N1 [Compound 74, (14R)-4,4,9-trifluoro-14-methyl-4,5,14,15-tetrahydro-3H,7H-19,1-(metheno)[1,4]oxazepino[3,4-i]-pyrazolo[4,3-f]pyrido[3,2-l] [1,4,8,10]oxatriazacyclotridecin-16(13H)-one] | 5.52 | 7.08 |
| 7.70 | CC[C@@H]1COc2cn3ncc4c3nc2N1Cc1cc(F)cnc1OCC[C@H](C)NC4=O [Compound 75, (6S,16R)-16-ethyl-12-fluoro-6-methyl-5,6,7,8,16,17-hexahydro-4H,14H-1,19-(metheno)[1,4]-oxazino[4,3-e]pyrazolo[3,4-h]-pyrido[2,3-b][1,5,7,11]oxatriaza-cyclotetradecin-4-one] | 8.01 | > 9.70 |
| 7.45 | CC[C@@H]1COc2cn3ncc4c3nc2N1Cc1cc(F)cnc1OCC(C)(C)CNC4=O [Compound 76, (16R)-16-ethyl-12-fluoro-7,7-dimethyl-5,6,7,8,16,17-hexahydro-4H,14H-1,19-(metheno)[1,4]-oxazino[4,3-e]pyrazolo[3,4-h]-pyrido[2,3-b][1,5,7,11]oxatriaza-cyclotetradecin-4-one] | 9.10 | > 9.70 |
| < 5.00 | C[C@H]1CNC(=O)c2cnn3cc4c(nc23)N(Cc2cc(F)cnc2O1)CC(F)(F)CO4 [Compound 77, (13S)-4,4,9-trifluoro-13-methyl-4,5,14,15-tetrahydro-3H,7H-19,1-(metheno)[1,4]oxazepino[3,4-i]-pyrazolo[4,3-f]pyrido[3,2-l] [1,4,8,10]oxatriazacyclotridecin-16(13H)-one] | 5.00 | 6.35 |
| 7.48 | C[C@@H]1COc2cn3ncc4c3nc2N1Cc1cc(F)cnc1OC[C@@H](F)CNC4=O [Compound 78, (7S,16R)-7,12-difluoro-16-methyl-5,6,7,8,16,17-hexahydro-4H,14H,- 1,19-(metheno)[1,4]oxazino[4,3-e]pyrazolo[3,4-h]pyrido[2,3-b] [1,5,7,11]oxatriazacyclotetradecin-4-one] | 7.99 | > 9.70 |
